Measured values taken from patent publication US20250388567A1, “SELECTIVE G PROTEIN-COUPLED RECEPTOR KINASE 5 INHIBITORS, COMPOSITIONS, AND METHODS OF USE” (Purdue Research Foundation, priority 2022, published 2025).

Experiments:
bovine GRK2 = bovine GRK2 (Bos taurus (Bovine), UniProt P21146); test: GRK2 radiometric inhibition assay (tubulin phosphorylation, [γ-32P]-ATP); format: biochemical; conditions: 50 nM GRK, 500 nM tubulin, 5 μM ATP
Protocol: (§1) Reactions were quenched at 8 min by addition of 5 μL of 4×SDS gel loading dye to the 10 μL reactions. […] Gels were dried, exposed to a storage phosphor screen overnight, and scanned using a Personal Molecular Imager (Bio-Rad). […] Outliers were eliminated automatically at a 1% Q value. Experiments were performed at least three times.
(§2) Standard control compounds are run during each assay to assess consistency across time, experimenters, and subtle changes in assay conditions that are sometimes required to keep compounds soluble and dispersed (e.g., through addition of DDM or 3% DMSO).

human GRK5 = human GRK5 (Homo sapiens (Human), UniProt P34947); test: GRK5 radiometric inhibition assay (tubulin phosphorylation, [γ-32P]-ATP); format: biochemical; conditions: 50 nM GRK, 500 nM tubulin, 5 μM ATP
Protocol: as §1, §2

Sequence of bovine GRK2 (P21146 whole entry): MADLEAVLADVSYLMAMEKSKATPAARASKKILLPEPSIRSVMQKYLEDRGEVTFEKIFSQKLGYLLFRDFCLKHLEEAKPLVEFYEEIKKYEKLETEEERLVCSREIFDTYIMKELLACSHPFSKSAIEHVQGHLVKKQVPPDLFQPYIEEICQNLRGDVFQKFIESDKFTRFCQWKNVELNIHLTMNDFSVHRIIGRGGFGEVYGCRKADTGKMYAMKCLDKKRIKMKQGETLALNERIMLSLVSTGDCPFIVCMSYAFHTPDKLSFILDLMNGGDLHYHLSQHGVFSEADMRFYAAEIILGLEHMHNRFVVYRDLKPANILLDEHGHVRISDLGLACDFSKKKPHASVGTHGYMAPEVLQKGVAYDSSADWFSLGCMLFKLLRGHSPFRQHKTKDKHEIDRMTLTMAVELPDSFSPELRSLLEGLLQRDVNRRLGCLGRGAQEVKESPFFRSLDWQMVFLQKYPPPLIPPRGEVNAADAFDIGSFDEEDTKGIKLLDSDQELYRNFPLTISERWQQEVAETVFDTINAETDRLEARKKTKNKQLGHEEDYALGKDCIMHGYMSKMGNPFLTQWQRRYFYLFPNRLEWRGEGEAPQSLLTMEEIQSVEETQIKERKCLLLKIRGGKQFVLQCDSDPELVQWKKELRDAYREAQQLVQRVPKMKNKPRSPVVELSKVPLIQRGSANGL
Sequence of human GRK5 (P34947 whole entry): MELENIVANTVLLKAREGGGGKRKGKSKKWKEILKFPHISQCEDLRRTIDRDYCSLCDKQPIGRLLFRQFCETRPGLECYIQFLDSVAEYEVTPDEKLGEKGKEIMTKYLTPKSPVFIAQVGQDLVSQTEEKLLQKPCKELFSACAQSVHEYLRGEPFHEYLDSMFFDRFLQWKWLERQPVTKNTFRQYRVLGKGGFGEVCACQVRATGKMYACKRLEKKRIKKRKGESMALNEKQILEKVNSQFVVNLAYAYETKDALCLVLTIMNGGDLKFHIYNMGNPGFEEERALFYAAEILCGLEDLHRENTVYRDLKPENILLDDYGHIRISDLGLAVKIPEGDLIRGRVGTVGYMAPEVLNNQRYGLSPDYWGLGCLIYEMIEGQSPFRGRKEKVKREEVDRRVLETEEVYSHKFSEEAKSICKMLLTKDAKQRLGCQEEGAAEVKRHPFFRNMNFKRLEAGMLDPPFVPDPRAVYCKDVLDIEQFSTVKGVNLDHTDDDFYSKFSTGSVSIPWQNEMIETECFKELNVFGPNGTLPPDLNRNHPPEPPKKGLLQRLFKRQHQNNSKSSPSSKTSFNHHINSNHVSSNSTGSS

Compound | IC50 (bovine GRK2) | IC50 (human GRK5)
Cc1[nH]c(/C=C2\C(=O)Nc3ccc(C(=O)N[C@H](C)c4ccccc4)cc32)c(C)c1C(=O)N[C@H]1c2ccccc2C[C@@H]1O [Compound 7] | > 10000 nM | 101 to 999 nM
Cc1[nH]c(/C=C2\C(=O)Nc3ccc(C(=O)N[C@H](C)c4ccccc4)cc32)c(C)c1C(=O)NCC1CC(=O)c2ccccc2O1 (stereo partly drawn) [Compound 41] | > 10000 nM | 1 to 100 nM
Cc1[nH]c(/C=C2\C(=O)Nc3ccc(C(=O)N[C@H](C)c4ccccc4)cc32)c(C)c1C(=O)NC[C@@H]1CCCO1 [Compound 37] | 1000 to 10000 nM | 1 to 100 nM
Cc1[nH]c(/C=C2\C(=O)Nc3ccc(C(=O)N[C@H](C)c4ccccc4)cc32)c(C)c1C(=O)NC1CCOCC1 [Compound 43] | > 10000 nM | 1000 to 10000 nM
Cc1[nH]c(/C=C2\C(=O)Nc3ccc(C(=O)N[C@H](C)c4ccccc4)cc32)c(C)c1C(=O)N[C@H]1c2ccccc2CC[C@H]1O [Compound 25] | > 10000 nM | 101 to 999 nM
COCO[C@@H]1Cc2ccccc2[C@H]1NC(=O)c1c(C)[nH]c(/C=C2\C(=O)Nc3ccc(C(=O)N[C@H](C)c4ccccc4)cc32)c1C [Compound 23] | > 10000 nM | > 10000 nM
COc1cccc2[nH]c(C(O)C(=O)Nc3c(C)[nH]c(/C=C4\C(=O)Nc5ccc(C(=O)N[C@H](C)c6ccc(F)cc6)cc54)c3C)cc12 (stereo partly drawn) [Compound 4] | > 10000 nM | 101 to 999 nM
Cc1[nH]c(CC2C(=O)Nc3ccc(C(=O)N[C@H](C)c4ccc(F)cc4)cc32)c(C)c1NC(=O)[C@H](O)c1ccco1 (stereo partly drawn) [Compound 13] | > 10000 nM | 101 to 999 nM
COc1cccc(C(O)C(=O)Nc2c(C)[nH]c(/C=C3\C(=O)Nc4ccc(C(=O)N[C@H](C)c5ccc(F)cc5)cc43)c2C)c1 (stereo partly drawn) [Compound 28] | > 10000 nM | 101 to 999 nM
Cc1[nH]c(/C=C2\C(=O)Nc3ccc(C(=O)N[C@H](C)c4ccccc4)cc32)c(C)c1C(=O)NCC1CCOC1 (mixture of isomers) [Compound 40] | 1000 to 10000 nM | 1 to 100 nM
Cc1[nH]c(/C=C2\C(=O)Nc3ccc(C(=O)N[C@H](C)c4ccc(F)cc4)cc32)c(C)c1NC(=O)C(O)c1ccccc1 (stereo partly drawn) [Compound 1] | > 10000 nM | –
Cc1[nH]c(/C=C2\C(=O)Nc3ccc(C(=O)N[C@H](C)c4ccccc4)cc32)c(C)c1C(=O)N[C@@H]1c2ccccc2C[C@@H]1O [Compound 5] | > 10000 nM | 101 to 999 nM
Cc1[nH]c(/C=C2\C(=O)Nc3ccc(C(=O)N[C@H]4CCc5ccccc54)cc32)c(C)c1NC(=O)C(=O)c1ccco1 [Compound 11] | > 10000 nM | 1000 to 10000 nM
Cc1[nH]c(/C=C2\C(=O)Nc3ccc(C(=O)N[C@@H]4CCc5ccccc54)cc32)c(C)c1NC(=O)C(=O)c1ccco1 [Compound 9] | > 10000 nM | > 10000 nM
Cc1[nH]c(/C=C2\C(=O)Nc3ccc(C(=O)N[C@H](C)c4ccccc4)cc32)c(C)c1C(=O)NCC(O)c1ccco1 (stereo partly drawn) [Compound 27] | 1000 to 10000 nM | 1 to 100 nM
Cc1[nH]c(/C=C2\C(=O)Nc3ccc(C(=O)N[C@H](C)c4ccccc4)cc32)c(C)c1C(=O)NC1CCS(=O)(=O)CC1 [Compound 42] | > 10000 nM | 101 to 999 nM
Cc1[nH]c(/C=C2\C(=O)Nc3ccc(C(=O)N[C@H](C)c4ccccc4)cc32)c(C)c1C(=O)NC1c2ccccc2OCC1O (stereo partly drawn) [Compound 26] | > 10000 nM | 101 to 999 nM
Cc1[nH]c(/C=C2\C(=O)Nc3ccc(C(=O)N[C@H](C)c4ccc(F)cc4)cc32)c(C)c1NC(=O)c1ccoc1 [Compound 21] | – | 1 to 100 nM
Cc1[nH]c(/C=C2\C(=O)Nc3ccc(C(=O)N[C@H](C)c4ccccc4)cc32)c(C)c1C(=O)NCc1ccco1 [Compound 29] | 1000 to 10000 nM | 1 to 100 nM
Cc1[nH]c(/C=C2\C(=O)Nc3ccc(C(=O)N[C@H](C)c4ccccc4)cc32)c(C)c1C(=O)NC(C)c1ccco1 (stereo partly drawn) [Compound 31] | 1000 to 10000 nM | 1 to 100 nM

Compound | IC50 (bovine GRK2) | IC50 (human GRK5)
Cc1[nH]c(/C=C2\C(=O)Nc3ccc(C(=O)N[C@H](C)c4ccccc4)cc32)c(C)c1C(O)C#N (stereo partly drawn) [Compound 18] | > 10000 nM | 101 to 999 nM
Cc1[nH]c(/C=C2\C(=O)Nc3ccc(C(=O)N[C@H](C)c4ccccc4)cc32)c(C)c1C(=O)NC[C@H]1CCCO1 [Compound 36] | > 10000 nM | 1 to 100 nM
Cc1[nH]c(/C=C2\C(=O)Nc3ccc(C(=O)N[C@H](C)c4ccccc4)cc32)c(C)c1C(=O)NCC(O)C1CCOC1 (stereo partly drawn) [Compound 44] | > 10000 nM | 1 to 100 nM
Cc1[nH]c(/C=C2\C(=O)Nc3ccc(C(=O)N[C@H](C)c4ccccc4)cc32)c(C)c1C(=O)N[C@@H]1c2ccccc2CC[C@@H]1O [Compound 24] | > 10000 nM | 101 to 999 nM
Cc1[nH]c(/C=C2\C(=O)Nc3ccc(C(=O)N[C@@H]4CCc5ccccc54)cc32)c(C)c1NC(=O)C(O)c1ccco1 (stereo partly drawn) [Compound 10] | > 10000 nM | 101 to 999 nM
Cc1[nH]c(/C=C2\C(=O)Nc3ccc(C(=O)N[C@H](C)c4ccc(F)cc4)cc32)c(C)c1C(=O)N[C@@H]1c2ccccc2C[C@H]1O [Compound 19] | > 10000 nM | 101 to 999 nM
Cc1[nH]c(/C=C2\C(=O)Nc3ccc(C(=O)N[C@H]4CCc5ccccc54)cc32)c(C)c1NC(=O)C(O)c1ccco1 (stereo partly drawn) [Compound 12] | > 10000 nM | 1000 to 10000 nM
Cc1[nH]c(/C=C2\C(=O)Nc3ccc(C(=O)N[C@H](C)c4ccc(F)cc4)cc32)c(C)c1C(=O)NCC1CCCO1 (mixture of isomers) [Compound 35] | > 10000 nM | 1 to 100 nM
Cc1[nH]c(/C=C2\C(=O)Nc3ccc(C(=O)N[C@H](C)c4ccccc4)cc32)c(C)c1C(=O)N[C@@H]1c2ccccc2C[C@H]1O [Compound 6] | > 10000 nM | 101 to 999 nM
Cc1[nH]c(/C=C2\C(=O)Nc3ccc(C(=O)N[C@H](C)c4ccccc4)cc32)c(C)c1C(=O)N[C@H]1CCc2ccccc21 [Compound 17] | > 10000 nM | > 10000 nM
Cc1[nH]c(/C=C2\C(=O)Nc3ccc(C(=O)N[C@H](C)c4ccccc4)cc32)c(C)c1C(=O)N[C@H]1Cc2ccccc2[C@H]1O [Compound 34] | 1000 to 10000 nM | 1 to 100 nM
Cc1[nH]c(/C=C2\C(=O)Nc3ccc(C(=O)N[C@H](C)c4ccccc4)cc32)c(C)c1C(=O)NC1CCOC1 (mixture of isomers) [Compound 39] | 1000 to 10000 nM | 1 to 100 nM
Cc1[nH]c(/C=C2\C(=O)Nc3ccc(C(=O)N[C@H](C)c4ccc(F)cc4)cc32)c(C)c1NC(=O)C(O)c1ccoc1 (stereo partly drawn) [Compound 22] | 1000 to 10000 nM | 1 to 100 nM
Cc1[nH]c(/C=C2\C(=O)Nc3ccc(C(=O)N[C@H](C)c4ccccc4)cc32)c(C)c1C(=O)NCC(O)c1ccoc1 (stereo partly drawn) [Compound 32] | 1000 to 10000 nM | 1 to 100 nM
Cc1[nH]c(/C=C2\C(=O)Nc3ccc(C(=O)N[C@H](C)c4ccccc4)cc32)c(C)c1C(=O)N[C@@H]1CCc2ccccc21 [Compound 16] | > 10000 nM | 1000 to 10000 nM
Cc1[nH]c(/C=C2\C(=O)Nc3ccc(C(=O)N[C@H](C)c4ccccc4)cc32)c(C)c1C(=O)N[C@H]1c2ccccc2C[C@H]1O [Compound 8] | > 10000 nM | 101 to 999 nM
Cc1[nH]c(/C=C2\C(=O)Nc3ccc(C(=O)N[C@H](C)c4ccccc4)cc32)c(C)c1C(=O)N[C@H]1C(=O)Cc2ccccc21 [Compound 20] | > 10000 nM | 101 to 999 nM
Cc1[nH]c(/C=C2\C(=O)Nc3ccc(C(=O)N[C@H](C)c4ccccc4)cc32)c(C)c1C(=O)NCC1CCCO1 (stereo partly drawn) [Compound 30] | 1000 to 10000 nM | 1 to 100 nM
Cc1[nH]c(/C=C2\C(=O)Nc3ccc(C(=O)N[C@H](C)c4ccccc4)cc32)c(C)c1C(=O)Nc1nc2ccccc2[nH]1 [Compound 33] | 1000 to 10000 nM | 101 to 999 nM
Cc1[nH]c(/C=C2\C(=O)Nc3ccc(C(=O)N[C@H](C)c4ccccc4)cc32)c(C)c1C(=O)NCC1CCCCO1 (stereo partly drawn) [Compound 38] | > 10000 nM | 1 to 100 nM
